Source: PMC8472513, “(−)-6-epi-Artemisinin, a Natural Stereoisomer of (+)-Artemisinin in the Opposite Enantiomeric Series, from the Endemic Madagascar Plant Saldinia proboscidea, an Atypical Source” (Molecules, 2021)
Like-named read-outs stand apart in the source and are kept apart here.

Assays:
SARS-CoV-2 [1] = assay: microbe, parasite or virus in culture; assay type: cell-based; settings: Vero E6 cells; for EC50: MOI 0.01, 24 h post infection, read-out: EC50, SARS-CoV-2 inhibitory assay
MCF breast cancer cells = settings: read-out: IC50, antiproliferative activity, cited from earlier work
SARS-CoV-2 [2] = system: SARS-CoV-2; set-up: method as in PMID 32786284; settings: read-out: EC50, inhibitory effect on SARS-CoV-2; cited from earlier work
Vero E6 cells = settings: read-out: CC50, cytotoxicity against Vero E6 cells; CCK8
haem polymerization = haem polymerization inhibitory activity (HPIA) assay; assay type: biochemical; settings: haematin, pH 2.6, 37 °C, 24 h; read-out: IC50, inhibition of haem polymerization formation
Protocol: Antimalarial activity was tested to (−)-6-epi-artemisinin (2) based on inhibition of haem polymerization. Haem is a by-product of haemoglobin digestion […]. It is potentially toxic to biological membranes and parasite enzymes, and it is thus sequestered in the form of an insoluble crystalline polymer, haemozoin or malaria pigment. Identifying molecules that interfere with haem polymerization is the basic principle of the assay. Haem can be polymerized in vitro, in the absence of proteins, from a solution of haematin at 70 °C or 37 °C at acidic pH. In vitro quantification of haem polymerization allows the identification of molecules with haem polymerization inhibitory activity (HPIA) and the assessment of their HPIA, relative to that of standard antimalarials like chloroquine.
100 microliters of a 0.5 mM solution of haematin, previously dissolved in 0.1 M NaOH, was distributed in 96-well U-bottomed microplates. […] The DMSO-soluble fraction (fraction II) was collected, and the pellet, consisting of a pure precipitate of haematin, was dissolved in 0.1 M NaOH (fraction III) for spectroscopic quantification. […] The amount of haematin was determined by measuring the absorbance at 405 nm using a microtiter plate reader. […]
Statistical analysis. […] Data were analyzed by Excel Microsoft. […]

[3] = system: W2 apoptotic competent and D3 apoptotic deficient mouse epithelial cell lines; assay: apoptosis induction assay (MTT, W2 vs D3 cells); assay type: cell-based; settings: 48 h
Source text: However, the antiproliferative activity of different artemisinin isomers has never been studied in the past. […] To address this subject, we performed an apoptosis induction assay with compound 2 in order to evaluate the effect of the change in configurations on this activity. To develop a cell-based assay specific for the identification of apoptosis-inducing compounds that are potential antiproliferative agents, we used two genetically engineered mouse epithitial cell lines: W2 apoptotic competent and D3 apoptotic deficient. Compounds that have the capacity to kill W2 and not D3 cells are consistent with proapoptotic, potentially antiproliferative activity. Compounds that meet these criteria activate apoptosis upstream in a pathway that requires Bax and Bak. […]
Apoptosis induction in the presence of compound 2 was carried out as follows. […] Cell viability was determined using a modification of the MTT assay, where the reduction of yellow tertazolium salt (MTT-3-(4,5-Dimethylthiazol-2-yl)-2,5) to purple formazan indicates mitochondrial activity, and thus cell viability. […] After 30 min incubation at 37 °C with shaking, absorbance was read at 570 nm on a Spectra MAX 250 (Molecular Devices) plate reader. Differential growth from time 0 to 48 h was calculated. […]

in vitro = settings: African green monkey, CC50, cytotoxicity against Vero E6 cells, CCK8

C[C@@H]1CC[C@H]2[C@@H](C)C(=O)O[C@@H]3O[C@@]4(C)CC[C@@H]1[C@]32OO4 [compound 1, (+)-artemisinin]
inhibition of growth of SARS-CoV-2 (in words) (SARS-CoV-2 [1]): inhibited the growth of SARS-CoV-2 | IC50 (MCF breast cancer cells; MCF breast cancer cells): 9.13 ± 0.07 µM | EC50 (SARS-CoV-2 [2]): 64 µM

CC1CCC2C(C)C(=O)OC3OC4(C)CCC1C32OO4 (stereo not drawn) [compound 3, 9 epimer of 2]
inhibition of growth of SARS-CoV-2 (in words) (SARS-CoV-2 [1]): inhibited the growth of SARS-CoV-2 | EC50 (SARS-CoV-2 [1]): 54 ± 0.27 µM | CC50 (Vero E6 cells): > 200 µM

CCN(CC)CCCC(C)Nc1ccnc2cc(Cl)ccc12 (stereo not drawn) [chloroquine, reference compound]
IC50 (haem polymerization): 0.018 ± 1e-06 µM

CC1CCC2C(C)C(=O)OC3OC4(C)CCC1C32OO4 (single isomer, unassigned; (-)) [compound 2, (−)-6-epi-artemisinin]
IC50 (haem polymerization): 0.0035 ± 2e-06 µM | EC50 (SARS-CoV-2 [1]; Severe acute respiratory syndrome coronavirus 2, Vero C1008, 24 h): 49 ± 0.32 µM | inhibition of growth of SARS-CoV-2 (in words) (SARS-CoV-2 [1]): inhibited the growth of SARS-CoV-2 | CC50 (Vero E6 cells): > 250 µM | IC50 ([3]; Mus musculus, Epithelial cell, read-out: IC50, induction of apoptosis, W2/D3 cells, 48 h, MTT): 10 µM | IC50 ([3]; read-out: IC50, induction of apoptosis, W2/D3 cells, MTT): 11 ± 0.71 µM | CC50 (in vitro): > 200 µM

C[C@H]1[C@@H](O)O[C@@H]2O[C@@]3(C)CC[C@H]4[C@H](C)CC[C@@H]1[C@@]24OO3 [dihydroartemisinin]
IC50 (MCF breast cancer cells; these same cells (MCF)): 5.27 ± 0.01 µM
